In US10920265B2, “Compounds and methods for detection of enzymes that remove methyl succinyl groups from epsilon-amino lysine moieties” (Enzo Life Sciences, Inc., priority 2011, dated 2021):
*: point of attachment. AMC = Cc1cc(=O)oc2cc(N*)ccc12

Assays:
Assay in all cases: Sirtuin activity with fluorogenic lysyl substrates
Format in all cases: biochemical
Details in all cases: 50 μM substrate, 500 μM NAD^+
SIRT3 = molecular target: T1, SIRT3 (Homo sapiens, UniProt Q9NTG7)
T1 construct: purchased ENZO Life Sciences BML-SE270
T1 sequence (Q9NTG7 1-399): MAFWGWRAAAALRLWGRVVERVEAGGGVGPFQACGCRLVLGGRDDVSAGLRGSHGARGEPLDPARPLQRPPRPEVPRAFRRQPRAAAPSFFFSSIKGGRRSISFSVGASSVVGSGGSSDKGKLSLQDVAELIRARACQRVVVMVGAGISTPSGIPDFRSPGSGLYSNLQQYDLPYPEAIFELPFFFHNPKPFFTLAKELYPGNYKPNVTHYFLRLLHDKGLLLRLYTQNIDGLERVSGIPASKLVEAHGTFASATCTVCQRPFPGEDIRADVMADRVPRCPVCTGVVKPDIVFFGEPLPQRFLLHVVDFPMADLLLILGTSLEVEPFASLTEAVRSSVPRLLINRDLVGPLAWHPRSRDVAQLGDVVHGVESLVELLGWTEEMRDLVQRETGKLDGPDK
Description: (§1) The Ac-Lys(Succ.)-AMC substrate was tested for activity with recombinant preparations of human HDACs 1-11, SIRTs 1-4, 6 and 7, a complex of HDAC3 with a fragment of the activating protein NCOR1 and with HeLa nuclear extract, a rich source of active HDACs in their native multiprotein complexes.
(§2) Enzyme and extract catalog products obtained from ENZO Life Sciences included: HDAC1 (Cat. # BML-SE456), HDAC2 (Cat. # BML-SE500), HDAC3 (Cat. # BML-SE507), HDAC3/NCOR1 Complex (Cat. # BML-SE515), HDAC6 (Cat. # BML-SE508), HDAC8 (Cat. # BML-SE145), HDAC10 (Cat. # BML-SE559), HDAC11 (Cat. # BML-SE560), SIRT1 (Cat. # BML-SE239), SIRT2 (Cat. # BML-SE251), SIRT3 (Cat. # BML-SE270), SIRT5 (Cat. # BML-SE555), HeLa Nuclear Extract (Cat. # BML-KI140), Trypsin (“Fluor de Lys Developer”, 80 mg/ml bovine trypsin in 1 mM HCl, Cat. # BML-KI105 or “Fluor de Lys Developer II”, 80 mg/ml bovine trypsin in 1 mM HCl, Cat. # BML-KI176). […] Enzymes obtained from BPS Bioscience, San Diego, Calif. included: human recombinants SIRT4 (Cat. #50015), SIRT6 (Cat. #50017), SIRT7 (Cat. #50018). HeLa whole cell extract was obtained from HeLa S3 cells (American Type Culture Collection) grown in a medium of MEM/10% fetal bovine serum (FBS) as follows: 1) 9×10^6 cells were suspended by trypsinization, followed by a phosphate buffered saline (PBS) rinse and addition of MEM/10% FBS (1.5 mL) to eliminate trypsin before transfer to a 15 mL conical tube; 2) cells were sedimented by a low speed centrifugation, gently resuspended in PBS and sedimented again and supernatant removed; 3) lysis was induced by resuspension in 0.8 mL 50 mM Tris/HCl, pH 8.0 with the non-denaturing detergent NP-40 (0.5%), placement on ice and brief vortexing every 5 min. for 30 min.; 4) 100 μl of a concentrated salt solution in the same buffer was added in order to bring the final buffer composition to 50 mM Tris/C1, pH 8.0, 137 mM NaCl, 2.7 mM KCl, 1 mM MgCl2, 0.5% NP-40; 5) particulate matter was cleared by centrifugation and the cleared lysate supernatant transferred to a 1.5 mL Eppendorf tube and stored on ice until use in activity assays.
(§3) Assays were performed at 37° C., according to the manufacturer's instructions for the “SIRT1 Fluorometric Drug Discovery Kit” from Enzo Life Sciences (ELS) (Cat. # BML-AK555), with exceptions described as follows. Where indicated in figures and text, SIRT1 enzyme was replaced with another enzyme or extract and the “Fluor de Lys-SIRT1 Substrate” (Ac-Arg-His-Lys-Lys(Ac)-AMC; ELS Cat. # BML-KI-177) was replaced with another acetylated, succinylated or trifluoroacetylated substrate.

SIRT7 = molecular target: T2, SIRT7 (Homo sapiens, UniProt Q9NRC8)
T2 construct: purchased BPS Bioscience 50018
T2 sequence (Q9NRC8 1-400): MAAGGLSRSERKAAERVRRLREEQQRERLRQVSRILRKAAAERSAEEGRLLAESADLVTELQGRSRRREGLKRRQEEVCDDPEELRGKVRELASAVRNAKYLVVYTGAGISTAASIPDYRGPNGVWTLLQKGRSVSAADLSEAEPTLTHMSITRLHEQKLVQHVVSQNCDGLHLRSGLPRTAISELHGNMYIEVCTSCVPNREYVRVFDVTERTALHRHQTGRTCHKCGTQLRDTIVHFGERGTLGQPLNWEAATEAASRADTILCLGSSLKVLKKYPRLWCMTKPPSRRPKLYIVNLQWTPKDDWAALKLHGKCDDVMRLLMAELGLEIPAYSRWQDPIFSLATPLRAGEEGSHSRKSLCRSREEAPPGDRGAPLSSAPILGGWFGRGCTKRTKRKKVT
Description: as §1, §2, §3

SIRT1 = molecular target: T3, SIRT1 (Homo sapiens, UniProt Q96EB6)
T3 construct: purchased ENZO Life Sciences BML-SE239
T3 sequence (Q96EB6 1-747): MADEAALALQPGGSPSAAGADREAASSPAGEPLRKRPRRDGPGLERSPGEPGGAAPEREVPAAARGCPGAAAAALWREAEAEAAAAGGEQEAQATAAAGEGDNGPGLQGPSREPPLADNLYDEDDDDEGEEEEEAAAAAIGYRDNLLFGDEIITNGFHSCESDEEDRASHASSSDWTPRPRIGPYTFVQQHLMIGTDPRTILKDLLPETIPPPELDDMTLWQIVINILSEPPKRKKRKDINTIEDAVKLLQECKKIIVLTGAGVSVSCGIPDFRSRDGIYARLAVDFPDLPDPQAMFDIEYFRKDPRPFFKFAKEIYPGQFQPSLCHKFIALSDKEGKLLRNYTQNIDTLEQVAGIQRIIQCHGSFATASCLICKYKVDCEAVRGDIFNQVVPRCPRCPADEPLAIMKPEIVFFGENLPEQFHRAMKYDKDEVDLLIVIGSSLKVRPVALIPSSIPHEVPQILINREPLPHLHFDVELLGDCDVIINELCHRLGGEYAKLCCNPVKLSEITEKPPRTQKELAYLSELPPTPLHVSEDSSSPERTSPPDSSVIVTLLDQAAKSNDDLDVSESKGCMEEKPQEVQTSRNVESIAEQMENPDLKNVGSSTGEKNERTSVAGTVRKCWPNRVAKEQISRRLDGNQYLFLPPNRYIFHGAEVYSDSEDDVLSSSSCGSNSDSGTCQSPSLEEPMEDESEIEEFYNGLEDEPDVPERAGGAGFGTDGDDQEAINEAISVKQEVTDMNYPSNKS
Description: as §1, §2, §3

Row | Compound | Activity (SIRT3) [pmol/min/µg] | Activity (pmol/min/μg) (SIRT7) | Activity (SIRT1) [pmol/min/µg] | Activity (pmol/min/μg) (SIRT1) | Activity (pmol/min/μg) (SIRT3)
1 | CC(=O)NCCCCC(NC(C)=O)C(=O)Nc1ccc2c(C)cc(=O)oc2c1 (stereo not shown) [Ac-Lys(Ac.)-AMC, Ac-Lys(ε-acetyl)-AMC, reference compound] | 0.125 | Undetectable | 0.391 | – | –
2 | Ac-Arg-His-Lys-Lys(ε-acetyl)-AMC (Ac-RHKK(Ac)-{AMC}; SMILES CC(=O)NCCCC[C@H](NC(=O)[C@H](CCCCN)NC(=O)[C@H](Cc1c[nH]cn1)NC(=O)[C@H](CCCNC(=N)N)NC(C)=O)C(=O)Nc1ccc2c(C)cc(=O)oc2c1) [Ac-RHKK(Ac)-AMC, p53 peptide fluorogenic deacetylase substrate, Cat. # BML-KI177, reference compound] | – | – | – | Ac-RHKK(Ac)-AMC/64 pmol/min/μg | –
3 | COC(=O)CCC(=O)NCCCC[C@H](NC(C)=O)C(=O)Nc1ccc2c(C)cc(=O)oc2c1 [Compound 5, N—(N^α-acetyl-L-Lysine(N^ε-methyl succinyl))-AMC] | 0.002 | Undetectable | 0.002 | – | –

More lines, now with the values ahead:

Row | Activity (SIRT3) [pmol/min/µg] | Activity (pmol/min/μg) (SIRT7) | Activity (SIRT1) [pmol/min/µg] | Activity (pmol/min/μg) (SIRT1) | Activity (pmol/min/μg) (SIRT3) | Compound
4 | 0.012 | Undetectable | 0.043 | – | – | CCCCCCCCCCCCCC(=O)NCCCC[C@H](NC(C)=O)C(=O)Nc1ccc2c(C)cc(=O)oc2c1 [Compound 4, N—(N^α-acetyl-L-Lysine(N^ε-myristoyl))-AMC]
5 | – | Undetectable | – | Undetectable | Undetectable | CC(=O)N[C@@H](CCCCNC(=O)CCC(=O)O)C(=O)Nc1ccc2c(C)cc(=O)oc2c1 [Compound 1, N—(N^α-acetyl-L-Lysine(N^ε-succinyl))-AMC]
